In patent US12527325B2, “Pesticidally active diazine-amide compounds” (SYNGENTA CROP PROTECTION AG, priority 2019, dated 2026):

Columns and labels:
Assay type in all cases: in vivo
Plutella xylostella [1] = assay: Example B5: Plutella xylostella (Diamond Back Moth); settings: 192 h, application rate of 200 ppm, 24-well artificial diet, eggs, 8 days after infestation, read-out: control in at least one of the two categories (mortality or growth inhibition)
Experimental: Example B5: Plutella xylostella (Diamond Back Moth)
24-well microtiter plates with artificial diet were treated with aqueous test solutions prepared from 10′000 ppm DMSO stock solutions by pipetting. After drying, Plutella eggs were pipetted through a plastic stencil onto a gel blotting paper and the plate was closed with it. The samples were assessed for mortality and growth inhibition in comparison to untreated samples 8 days after infestation.

Myzus persicae [2] = assay: Example B6: Myzus persicae (Green Peach Aphid): Feeding/Contact Activity; settings: foliar, 144 h, application rate of 200 ppm, sprayed sunflower leaf discs, aphid population of mixed ages, 6 days after infestation
Experimental: Example B6: Myzus persicae (Green Peach Aphid): Feeding/Contact Activity
Sunflower leaf discs were placed onto agar in a 24-well microtiter plate and sprayed with aqueous test solutions prepared from 10′000 ppm DMSO stock solutions. After drying, the leaf discs were infested with an aphid population of mixed ages. The samples were assessed for mortality 6 days after infestation.

Chilo suppressalis = assay: Example B4: Chilo suppressalis (Striped Rice Stemborer); settings: 144 h, application rate of 200 ppm, artificial diet, L2 larvae, 6 days after infestation, read-out: control in at least one of the three categories (mortality, anti-feedant or growth inhibition)
Summary of the method: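 Artificial diet was treated with aqueous dilutions made from 10'000 ppm DMSO stocks, dried, then infested with L2 larvae at 6–8 per well. Mortality, antifeedant effect and growth inhibition were assessed against untreated samples 6 days after infestation.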

Spodoptera littoralis [3] = assay: Example B9: Spodoptera littoralis (Egyptian Cotton Leaf Worm), cotton leaf disc spray; settings: foliar, 72 h, application rate of 200 ppm, sprayed cotton leaf discs, L1 larvae, 3 days after infestation, read-out: control in at least one of the three categories (mortality, anti-feedant or growth inhibition)
Euschistus heros = assay: Example B2: Euschistus heros (Neotropical Brown Stink Bug); settings: 120 h, application rate of 200 ppm, sprayed soybean leaves, N2 nymphs, 5 days after infestation, read-out: control in at least one of the two categories (mortality or growth inhibition)
Experimental: Example B2: Euschistus heros (Neotropical Brown Stink Bug)
Soybean leaves on agar in 24-well microtiter plates were sprayed with aqueous test solutions prepared from 10′000 ppm DMSO stock solutions. After drying the leaves were infested with N2 nymphs. The samples were assessed for mortality and growth inhibition in comparison to untreated samples 5 days after infestation.

[4] = tested on: Frankliniella occidentalis; assay: Example B3: Frankliniella occidentalis (Western Flower Thrips): Feeding/Contact Activity; settings: foliar, 168 h, application rate of 200 ppm, sprayed sunflower leaf discs, population of mixed ages, 7 days after infestation
Experimental: Example B3: Frankliniella occidentalis (Western Flower Thrips): Feeding/Contact Activity
Sunflower leaf discs were placed on agar in 24-well microtiter plates and sprayed with aqueous test solutions prepared from […] stock solutions. After drying the leaf discs were infested with a Frankliniella population of mixed ages. The samples were assessed for mortality 7 days after infestation.

Myzus persicae [5] = assay: Example B7: Myzus persicae (Green Peach Aphid): Systemic Activity; settings: 144 h, test rate of 24 ppm, roots of pea seedlings in test solution, 6 days
Experimental: Example B7: Myzus persicae (Green Peach Aphid): Systemic Activity
Roots of pea seedlings infested with an aphid population of mixed ages were placed directly into aqueous test solutions prepared from 10′000 DMSO stock solutions. The samples were assessed for mortality 6 days after placing seedlings into test solutions.

Myzus persicae [6] = assay: Example B8: Myzus persicae (Green Peach Aphid): Intrinsic Activity; settings: 120 h, test rate of 12 ppm, 24-well sucrose solution under Parafilm, 5 days after infestation
Source text: Example B8: Myzus persicae (Green Peach Aphid): Intrinsic Activity
Test compounds prepared from 10′000 ppm DMSO stock solutions were applied by pipette into 24-well microtiter plates and mixed with sucrose solution. The plates were closed with a stretched Parafilm. A plastic stencil with 24 holes was placed onto the plate and infested pea seedlings were placed directly on the Parafilm. The infested plate was closed with a gel blotting paper and another plastic stencil and then turned upside down. The samples were assessed for mortality 5 days after infestation.

Plutella xylostella [7] = assay: Example B12: Plutella xylostella (Diamondback Moth), 96-well artificial diet; settings: 216 h, application rate of 500 ppm, eggs, 9 days after infestation
Experimental: Example B12: Plutella xylostella (Diamondback Moth)
96-well microtiter plates containing artificial diet were treated with aqueous test solutions, prepared from 10′000 ppm DMSO stock solutions, by a liquid handling robot. After drying, eggs (˜30 per well) were infested onto a netted lid which was suspended above the diet. The eggs hatch and L1 larvae move down to the diet. The samples were assessed for mortality 9 days after infestation.

Diabrotica balteata = assay: Example B1: Diabrotica balteata (Corn Root Worm); settings: 96 h, application rate of 200 ppm, sprayed maize sprouts, L2 larvae, 4 days after infestation, read-out: control in at least one of the two categories (mortality or growth inhibition)
Experimental: Example B1: Diabrotica balteata (Corn Root Worm)
Maize sprouts placed onto an agar layer in 24-well microtiter plates were treated with aqueous test solutions prepared from 10′000 ppm DMSO stock solutions by spraying. After drying, the plates were infested with L2 larvae (6 to 10 per well). The samples were assessed for mortality and growth inhibition in comparison to untreated samples 4 days after infestation.

Myzus persicae [8] = assay: Example B11: Myzus persicae (Green Peach Aphid), 96-well sucrose solution; settings: 120 h, application rate of 50 ppm, 96-well sucrose solution under Parafilm, 5 days after infestation
Source text: Example B11: Myzus persicae (Green Peach Aphid)
Test compounds prepared from 10′000 ppm DMSO stock solutions were applied by a liquid handling robot into 96-well microtiter plates and mixed with a sucrose solution. Parafilm was stretched over the 96-well microtiter plate and a plastic stencil with 96 holes was placed onto the plate. Aphids were sieved into the wells directly onto the Parafilm. The infested plates were closed with a gel blotting card and a second plastic stencil and then turned upside down. The samples were assessed for mortality 5 days after infestation.

Spodoptera littoralis [9] = assay: Example B10: Spodoptera littoralis (Egyptian Cotton Leaf Worm), uptake by lettuce roots from agar; settings: 144 h, test rate of 12.5 ppm, compound in agar absorbed by lettuce roots, eggs, 6 days after infestation, read-out: control in at least one of the three categories (mortality, anti-feedant, or growth inhibition)
Source text: Example B10: Spodoptera littoralis (Egyptian Cotton Leaf Worm)
Test compounds were applied by pipette from 10′000 ppm DMSO stock solutions into 24-well plates and mixed with agar. Lettuce seeds were placed onto the agar and the multi well plate was closed by another plate which contained also agar. After 7 days the compound was absorbed by the roots and the lettuce grew into the lid plate. The lettuce leaves were then cut off into the lid plate. Spodoptera eggs were pipetted through a plastic stencil onto a humid gel blotting paper and the lid plate was closed with it. The samples were assessed for mortality, anti-feedant effect and growth inhibition in comparison to untreated samples 6 days after infestation.

CC(NC(=O)c1cc(OC(F)F)cc(S(=O)(=O)C(F)(F)F)c1)c1nccnc1-c1ncccn1 (centres unmarked) [P45, 3-(difluoromethoxy)-N-[1-(3-pyrimidin-2-ylpyrazin-2-yl)ethyl]-5-(trifluoromethylsulfonyl) benzamide]
≥ 80%: percent control (mortality or growth inhibition) at 200 ppm (Plutella xylostella [1]) | mortality at 200 ppm (Myzus persicae [2]) | percent control (mortality, anti-feedant effect or growth inhibition) at 200 ppm (Chilo suppressalis) | percent control (mortality, anti-feedant effect or growth inhibition) at 200 ppm (Spodoptera littoralis [3])

CC(NC(=O)c1cc(C(F)(F)F)cc(S(=O)(=O)C2CC2)c1)c1nccnc1-c1ncccn1 (centres unmarked) [P10, 3-cyclopropylsulfonyl-N-[1-(3-pyrimidin-2-ylpyrazin-2-yl)ethyl]-5-(trifluoromethyl) benzamide]
≥ 80%: percent control (mortality or growth inhibition) at 200 ppm (Plutella xylostella [1]) | percent control (mortality or growth inhibition) at 200 ppm (Euschistus heros) | mortality at 200 ppm [4] | percent control (mortality, anti-feedant effect or growth inhibition) at 200 ppm (Chilo suppressalis) | mortality at 24 ppm (Myzus persicae [5]) | mortality at 12 ppm (Myzus persicae [6])

CC(NC(=O)c1cc(C(F)(F)F)cc(C2(C#N)CC2)c1)c1nccnc1-c1ncccn1 (centres unmarked) [P25, 3-(1-cyanocyclopropyl)-N-[1-(3-pyrimidin-2-ylpyrazin-2-yl)ethyl]-5-(trifluoromethyl)benzamide]
≥ 80%: percent control (mortality or growth inhibition) at 200 ppm (Plutella xylostella [1]) | percent control (mortality or growth inhibition) at 200 ppm (Euschistus heros) | percent control (mortality, anti-feedant effect or growth inhibition) at 200 ppm (Chilo suppressalis) | mortality at 24 ppm (Myzus persicae [5]) | mortality at 500 ppm (Plutella xylostella [7]) | percent control (mortality, anti-feedant effect or growth inhibition) at 200 ppm (Spodoptera littoralis [3]) | percent control (mortality or growth inhibition) at 200 ppm (Diabrotica balteata) | mortality at 12 ppm (Myzus persicae [6]) | mortality at 50 ppm (Myzus persicae [8])

CC(NC(=O)c1cc(C(F)(F)F)cc(C(F)(F)C2CC2)c1)c1nccnc1-c1ncc(C2CC2)cn1 (centres unmarked) [P39, 3-[cyclopropyl(difluoro)methyl]-N-[1-[3-(5-cyclopropylpyrimidin-2-yl)pyrazin-2-yl]ethyl]-5-(trifluoromethyl)benzamide]
≥ 80%: percent control (mortality or growth inhibition) at 200 ppm (Plutella xylostella [1]) | percent control (mortality, anti-feedant effect or growth inhibition) at 200 ppm (Chilo suppressalis) | mortality at 500 ppm (Plutella xylostella [7]) | percent control (mortality, anti-feedant effect or growth inhibition) at 12.5 ppm (Spodoptera littoralis [9]) | percent control (mortality, anti-feedant effect or growth inhibition) at 200 ppm (Spodoptera littoralis [3]) | percent control (mortality or growth inhibition) at 200 ppm (Diabrotica balteata)

CC(NC(=O)c1cc(C(F)(F)F)nc(C2(C#N)CC2)c1)c1nccnc1-c1ncccn1 (centres unmarked) [P32, 2-(1-cyanocyclopropyl)-N-[1-(3-pyrimidin-2-ylpyrazin-2-yl)ethyl]-6-(trifluoromethyl)pyridine-4-carboxamide]
≥ 80%: percent control (mortality or growth inhibition) at 200 ppm (Plutella xylostella [1]) | percent control (mortality or growth inhibition) at 200 ppm (Euschistus heros) | mortality at 200 ppm [4] | percent control (mortality, anti-feedant effect or growth inhibition) at 200 ppm (Chilo suppressalis) | percent control (mortality, anti-feedant effect or growth inhibition) at 200 ppm (Spodoptera littoralis [3]) | percent control (mortality or growth inhibition) at 200 ppm (Diabrotica balteata) | mortality at 12 ppm (Myzus persicae [6])

CC(NC(=O)c1cc(OC(F)F)cc(C2(C#N)CC2)c1)c1nccnc1-c1ncccn1 (centres unmarked) [P44, 3-(1-cyanocyclopropyl)-5-(difluoromethoxy)-N-[1-(3-pyrimidin-2-ylpyrazin-2-yl)ethyl]benzamide]
≥ 80%: percent control (mortality or growth inhibition) at 200 ppm (Plutella xylostella [1]) | percent control (mortality or growth inhibition) at 200 ppm (Euschistus heros) | mortality at 200 ppm [4] | mortality at 200 ppm (Myzus persicae [2]) | percent control (mortality, anti-feedant effect or growth inhibition) at 200 ppm (Chilo suppressalis) | mortality at 24 ppm (Myzus persicae [5]) | percent control (mortality, anti-feedant effect or growth inhibition) at 200 ppm (Spodoptera littoralis [3]) | percent control (mortality or growth inhibition) at 200 ppm (Diabrotica balteata) | mortality at 12 ppm (Myzus persicae [6])

CC(NC(=O)c1cc(OC(F)(F)F)cc(C2(C#N)CC2)c1)c1nccnc1-c1ncccn1 (centres unmarked) [P46, 3-(1-cyanocyclopropyl)-N-[1-(3-pyrimidin-2-ylpyrazin-2-yl)ethyl]-5-(trifluoromethoxy) benzamide]
≥ 80%: percent control (mortality or growth inhibition) at 200 ppm (Plutella xylostella [1]) | percent control (mortality or growth inhibition) at 200 ppm (Euschistus heros) | mortality at 200 ppm (Myzus persicae [2]) | percent control (mortality, anti-feedant effect or growth inhibition) at 200 ppm (Chilo suppressalis) | mortality at 24 ppm (Myzus persicae [5]) | percent control (mortality, anti-feedant effect or growth inhibition) at 200 ppm (Spodoptera littoralis [3]) | percent control (mortality or growth inhibition) at 200 ppm (Diabrotica balteata) | mortality at 12 ppm (Myzus persicae [6])

CC(NC(=O)c1cc(C2CC2)nc(C(F)(F)F)c1)c1nccnc1-c1ncccn1 (centres unmarked) [P31, 2-cyclopropyl-N-[1-(3-pyrimidin-2-ylpyrazin-2-yl)ethyl]-6-(trifluoromethyl)pyridine-4-carboxamide]
≥ 80%: percent control (mortality or growth inhibition) at 200 ppm (Plutella xylostella [1]) | percent control (mortality or growth inhibition) at 200 ppm (Euschistus heros) | mortality at 200 ppm [4] | percent control (mortality, anti-feedant effect or growth inhibition) at 200 ppm (Chilo suppressalis) | percent control (mortality, anti-feedant effect or growth inhibition) at 200 ppm (Spodoptera littoralis [3]) | percent control (mortality or growth inhibition) at 200 ppm (Diabrotica balteata) | mortality at 12 ppm (Myzus persicae [6])
